According to patent US10159640B2, “Prebiotic oral care compositions containing amino acids” (COLGATE-PALMOLIVE COMPANY, priority 2013, dated 2018):
Residues, ends and D or L forms follow the SMILES beside them.

Tests used:
Format in all cases: cell-based
Streptococcus mitis = experiment: Metabolic activity, Biolog phenotype microarray; settings: control without dipeptide = 1
Method: (§1) The extent of metabolic activity of the tested bacteria in the presence of the above-mentioned dipeptides after 24 hours and 48 hours was investigated through a high throughput phenotype microarray system (PM) for microbial cells (Biolog Inc.). Each PM can contain up to 95 different biochemical compounds (e.g. di-peptides) that may act as substrates for bacteria as well as one negative control, not containing the substrates. Microarray plates were used in which the different wells of each plate were pre-loaded (by the manufacturer, Biolog Inc.) with different di-peptides to be tested. Each bacterial species was tested using a separate microarray plate. Thus, a single bacterial species was tested with a variety of dipeptides on each particular plate. The microarrays are based on redox technology, using cell respiration as a universal reporter. Active cell respiration results in the reduction of a tetrazolium dye and in the formation of a strong color—for example, when using the tetrazolium dye “Biolog Redox Dye Mix D”, the color changes from transparent/colourless to purple when the dye is reduced. The observation of this color change indicates which of the substrates improve the metabolic activity and health of the cells. Each bacterial species was collected from blood agar plates (incubated for 48 hours anaerobically at 37° C.) and transferred to an IF-0 Base inoculation fluid (Biolog Inc.), which is a nutritionally poor medium. The resulting cell suspension was adjusted to a transmittance of 42% (relative to the transmittance of the base inoculation fluid with no bacterial species present) at 492 nm using a BioRad SmartSpec 3000 Photometer (the adjustment being effected by adding either further inoculation fluid or further bacteria until the transmittance of 42% was achieved). A 1:5 dilution of this suspension was prepared by mixing 3 mL of the 42% transmittance cell suspension with 15 mL of an inoculation fluid (which inoculation fluid was formed by mixing 11.6 mL sterile water, 62.5 mL IF-0 base inoculation fluid and 0.9 mL of the tetrazolium dye “Biolog Redox Dye mix D”), resulting in a final cell density which was equal to 85% transmittance using a BioRad SmartSpec 3000 Photometer. 680 μL of a 2M sodium succinate/200 μM ferric citrate solution in distilled water was added to 68 mL of the 85% transmittance cell suspension and 100 μL of this mixture was added to each well (the various di-peptides being already present in powder form in the relevant wells of the plate as obtained from the supplier i.e. Biolog Inc.). All plates were incubated in an anaerobic atmosphere at 37° C. Color changes were measured spectrophotometrically at 492 nm (Thermo Scientific Multiskan Ascent) at 24 hrs and 48 hrs using the same plate at both time points. […] After 24 hrs and 48 hrs under continuous shaking in a Multiscan microplate reader, the optical density (OD) of the synthetic medium at 24 hours and 48 hours was measured (using the microplate reader) at a wavelength of 492 nm for each combination of bacterium/dipeptide, and for each of their respective controls (i.e. which contained the particular bacterium but no dipeptide). […] The experiment was carried out three times for each combination of bacterium with dipeptide, with each repeat being carried out on a different day (thus providing three biological replicas). The controls were also carried out three times, as above. The values shown are the average (mean) of the three single values obtained (as detailed above) for each combination of bacterium with dipeptide, at 24 hrs and at 48 hrs.

Actinomyces viscosus = experiment: Metabolic activity, Biolog phenotype microarray; settings: control without dipeptide = 1
Method: as §1

Veillonella parvula = experiment: Metabolic activity, Biolog phenotype microarray; settings: control without dipeptide = 1
Method: as §1

[1] = test system: Aggregatibacter actinomycetemcomitans; experiment: Metabolic activity, Biolog phenotype microarray; settings: control without dipeptide = 1
Method: as §1

Streptococcus salivarius = experiment: Metabolic activity, Biolog phenotype microarray; settings: control without dipeptide = 1
Method: as §1

Streptococcus gordonii = experiment: Metabolic activity, Biolog phenotype microarray; settings: control without dipeptide = 1
Method: as §1

Tannerella forsythia = experiment: Metabolic activity, Biolog phenotype microarray; settings: control without dipeptide = 1
Method: as §1

Fusobacterium nucleatum = experiment: Metabolic activity, Biolog phenotype microarray; settings: control without dipeptide = 1
Method: as §1

Capnocytophaga sputigena = experiment: Metabolic activity, Biolog phenotype microarray; settings: control without dipeptide = 1
Method: as §1

Prevotella intermedia = experiment: Metabolic activity, Biolog phenotype microarray; settings: control without dipeptide = 1
Method: as §1

Porphyromonas gingivalis = experiment: Metabolic activity, Biolog phenotype microarray; settings: control without dipeptide = 1
Method: as §1

Streptococcus mutans = experiment: Metabolic activity, Biolog phenotype microarray; settings: control without dipeptide = 1
Method: as §1

Streptococcus sanguinis = experiment: Metabolic activity, Biolog phenotype microarray; settings: control without dipeptide = 1
Method: as §1

Streptococcus sobrinus = experiment: Metabolic activity, Biolog phenotype microarray; settings: control without dipeptide = 1
Method: as §1

Actinomyces naeslundii = experiment: Metabolic activity, Biolog phenotype microarray; settings: control without dipeptide = 1
Method: as §1

[2] = test system: beneficial oral bacteria and pathogenic oral bacteria; experiment: Metabolic activity, whole panel: prebiotic effect; settings: for prebiotic effects (metabolic activity): threshold value of 2
Method: Substrates that were able to increase the metabolic activity of at least one of the above beneficial bacteria while not or only minimally increasing the growth of the pathogenic bacteria are considered to be prebiotic substrates. The extent of metabolic activity of the tested bacteria in the presence of the above-mentioned dipeptides after 24 hours and 48 hours was investigated through a high throughput phenotype microarray system (PM) for microbial cells (Biolog Inc.). Each PM can contain up to 95 different biochemical compounds (e.g. di-peptides) that may act as substrates for bacteria as well as one negative control, not containing the substrates. Microarray plates were used in which the different wells of each plate were pre-loaded (by the manufacturer, Biolog Inc.) with different di-peptides to be tested. Each bacterial species was tested using a separate microarray plate. Thus, a single bacterial species was tested with a variety of dipeptides on each particular plate. The microarrays are based on redox technology, using cell respiration as a universal reporter. Active cell respiration results in the reduction of a tetrazolium dye and in the formation of a strong color—for example, when using the tetrazolium dye “Biolog Redox Dye Mix D”, the color changes from transparent/colourless to purple when the dye is reduced. The observation of this color change indicates which of the substrates improve the metabolic activity and health of the cells. Each bacterial species was collected from blood agar plates (incubated for 48 hours anaerobically at 37° C.) and transferred to an IF-0 Base inoculation fluid (Biolog Inc.), which is a nutritionally poor medium. The resulting cell suspension was adjusted to a transmittance of 42% (relative to the transmittance of the base inoculation fluid with no bacterial species present) at 492 nm using a BioRad SmartSpec 3000 Photometer (the adjustment being effected by adding either further inoculation fluid or further bacteria until the transmittance of 42% was achieved). A 1:5 dilution of this suspension was prepared by mixing 3 mL of the 42% transmittance cell suspension with 15 mL of an inoculation fluid (which inoculation fluid was formed by mixing 11.6 mL sterile water, 62.5 mL IF-0 base inoculation fluid and 0.9 mL of the tetrazolium dye “Biolog Redox Dye mix D”), resulting in a final cell density which was equal to 85% transmittance using a BioRad SmartSpec 3000 Photometer. 680 μL of a 2M sodium succinate/200 μM ferric citrate solution in distilled water was added to 68 mL of the 85% transmittance cell suspension and 100 μL of this mixture was added to each well (the various di-peptides being already present in powder form in the relevant wells of the plate as obtained from the supplier i.e. Biolog Inc.). All plates were incubated in an anaerobic atmosphere at 37° C. Color changes were measured spectrophotometrically at 492 nm (Thermo Scientific Multiskan Ascent) at 24 hrs and 48 hrs using the same plate at both time points. […] After 24 hrs and 48 hrs under continuous shaking in a Multiscan microplate reader, the optical density (OD) of the synthetic medium at 24 hours and 48 hours was measured (using the microplate reader) at a wavelength of 492 nm for each combination of bacterium/dipeptide, and for each of their respective controls (i.e. which contained the particular bacterium but no dipeptide). […] The experiment was carried out three times for each combination of bacterium with dipeptide, with each repeat being carried out on a different day (thus providing three biological replicas). The controls were also carried out three times, as above. The values shown are the average (mean) of the three single values obtained (as detailed above) for each combination of bacterium with dipeptide, at 24 hrs and at 48 hrs. […] This value was selected in order to exclude low-stimulating metabolites and avoid false positive results.

Compound | metabolic activity: OD 492 nm divided by OD of control (Streptococcus mitis; 24 hrs) | metabolic activity: OD 492 nm divided by OD of control (Streptococcus mitis; 48 hrs) | metabolic activity: OD 492 nm divided by OD of control (Actinomyces viscosus; 24 hrs) | metabolic activity: OD 492 nm divided by OD of control (Actinomyces viscosus; 48 hrs) | metabolic activity: OD 492 nm divided by OD of control (Veillonella parvula; 24 hrs) | metabolic activity: OD 492 nm divided by OD of control (Veillonella parvula; 48 hrs) | metabolic activity: OD 492 nm divided by OD of control ([1]; 24 hrs) | metabolic activity: OD 492 nm divided by OD of control ([1]; 48 hrs) | metabolic activity: OD 492 nm divided by OD of control (Streptococcus salivarius; 24 hrs) | metabolic activity: OD 492 nm divided by OD of control (Streptococcus salivarius; 48 hrs) | metabolic activity: OD 492 nm divided by OD of control (Streptococcus gordonii; 24 hrs) | metabolic activity: OD 492 nm divided by OD of control (Streptococcus gordonii; 48 hrs) | metabolic activity: OD 492 nm divided by OD of control (Tannerella forsythia; 24 hrs) | metabolic activity: OD 492 nm divided by OD of control (Tannerella forsythia; 48 hrs) | metabolic activity: OD 492 nm divided by OD of control (Fusobacterium nucleatum; 24 hrs) | metabolic activity: OD 492 nm divided by OD of control (Fusobacterium nucleatum; 48 hrs) | metabolic activity: OD 492 nm divided by OD of control (Capnocytophaga sputigena; 24 hrs) | metabolic activity: OD 492 nm divided by OD of control (Capnocytophaga sputigena; 48 hrs) | metabolic activity: OD 492 nm divided by OD of control (Prevotella intermedia; 24 hrs) | metabolic activity: OD 492 nm divided by OD of control (Prevotella intermedia; 48 hrs) | other results
CC(C)C(NC(=O)C(N)CO)C(=O)O (stereo not drawn) [Ser-Val] (H-Ser-Val-OH; configuration not given here) | 1.4166 | 1.8051 | 2.1120 | 2.4349 | 1.2776 | 1.3095 | 1.4527 | 1.9697 | 1.3826 | 1.9626 | 1.4328 | 1.7640 | 1.2842 | 1.7260 | 1.3741 | 1.5983 | 1.4541 | 1.4933 | 1.4709 | 1.7953 | metabolic activity: OD 492 nm divided by OD of control (Porphyromonas gingivalis; 24 hrs): 1.3880; metabolic activity: OD 492 nm divided by OD of control (Porphyromonas gingivalis; 48 hrs): 1.9267; metabolic activity: OD 492 nm divided by OD of control (Streptococcus mutans; 24 hrs): 1.4622; metabolic activity: OD 492 nm divided by OD of control (Streptococcus mutans; 48 hrs): 2.0721; metabolic activity: OD 492 nm divided by OD of control (Streptococcus sanguinis; 24 hrs): 1.2030; metabolic activity: OD 492 nm divided by OD of control (Streptococcus sanguinis; 48 hrs): 1.5280; metabolic activity: OD 492 nm divided by OD of control (Streptococcus sobrinus; 24 hrs): 1.3133; metabolic activity: OD 492 nm divided by OD of control (Streptococcus sobrinus; 48 hrs): 1.8354; metabolic activity: OD 492 nm divided by OD of control (Actinomyces naeslundii; 24 hrs): 1.4073; metabolic activity: OD 492 nm divided by OD of control (Actinomyces naeslundii; 48 hrs): 1.7338; prebiotic effects (metabolic activity) ([2]; 24 hrs): exhibited prebiotic effects; speed of metabolism by beneficial versus pathogenic bacteria ([2]; value of 2 reached at 24 hrs for beneficial but not pathogenic bacteria): metabolized faster by the beneficial bacteria than by the pathogenic bacteria
Ser-Asn | 1.0807 | 1.5785 | 1.7174 | 2.0421 | 1.1101 | 1.1143 | 1.3093 | 1.7285 | 1.1917 | 1.5886 | 0.8814 | 1.3337 | 1.2030 | 1.4354 | 1.2165 | 1.4289 | 2.2418 | 1.5699 | 1.1002 | 1.1329 | metabolic activity: OD 492 nm divided by OD of control (Porphyromonas gingivalis; 24 hrs): 1.0079; metabolic activity: OD 492 nm divided by OD of control (Porphyromonas gingivalis; 48 hrs): 1.2165; metabolic activity: OD 492 nm divided by OD of control (Streptococcus mutans; 24 hrs): 1.2715; metabolic activity: OD 492 nm divided by OD of control (Streptococcus mutans; 48 hrs): 1.7588; metabolic activity: OD 492 nm divided by OD of control (Streptococcus sanguinis; 24 hrs): 1.1935; metabolic activity: OD 492 nm divided by OD of control (Streptococcus sanguinis; 48 hrs): 1.5794; metabolic activity: OD 492 nm divided by OD of control (Streptococcus sobrinus; 24 hrs): 1.2753; metabolic activity: OD 492 nm divided by OD of control (Streptococcus sobrinus; 48 hrs): 1.7028; metabolic activity: OD 492 nm divided by OD of control (Actinomyces naeslundii; 24 hrs): 1.3199; metabolic activity: OD 492 nm divided by OD of control (Actinomyces naeslundii; 48 hrs): 1.6167; prebiotic effects (metabolic activity) ([2]; 24 hrs): exhibited prebiotic effects; prebiotic effects (metabolic activity) ([2]; 48 hrs): exhibited prebiotic effects
